Assays:
KG1a = assay: Inhibition of proliferation (CellTiterblue, 72 hr), KG1a; format: cell-based, human; settings: Homo sapiens, KG-1a; 72 hr
Method: (§1) A number of studies were performed to analyze the consequences of tyrosine kinase inhibition in cell lines. To do this, 1000 cells are seeded in 27 μl/well in 384-well microplates, which are then placed in a humidified CO2 incubator at 37° C. overnight. The next day, 3 μl/well of 10× concentrated drug is added and the plates are returned to the incubator for 72 hr. After 72 hr incubation, plates are removed and 6 μl/well CellTiterblue (Promega) viability reagent is added. Plates are returned to the incubator for 3 hrs, after which fluorescence measurements are read on the Victor X3 plate reader (Perkin Elmer). Data are analyzed using Excel (Microsoft), and GI50 values are determined using Prism (Graphpad).

KDR(h) = KDR(h) (Homo sapiens, UniProt P35968); assay: Kinase assay, KDR(h); format: biochemical
Method: (§2) Kinase assay protocols well known to those of ordinary skill in the art were used. Specifically, the buffer composition was as follows: 20 mM MOPS, 1 mM EDTA, 0.01% Brij-35, 5% Glycerol, 0.1% β-mercaptoethanol, 1 mg/mL BSA. Test compounds were initially dissolved in DMSO at the desired concentration, then serially diluted to the kinase assay buffer. In a final reaction volume of 25 μL FGFR1(h) (5-10 mU) and KDR(h) (5-10 mU) are incubated with 8 mM MOPS pH 7.0, 0.2 mM EDTA, 200 μM LRRASLG (Kemptide), 10 mM magnesium acetate and [γ^33P-ATP]. The reaction was initiated by the addition of the MgATP mix. After incubation for 40 minutes at room temperature, the reaction was stopped by addition of 5 μL of a 3% phosphoric acid solution. Ten L of the reaction was then spotted onto a P30 filter mat and washed three times for 5 minutes in 50 mM phosphoric acid and once in methanol prior to drying and scintillation counting. Wells containing substrate but no kinase and wells containing a phosphopeptide control were used to set 0% and 100% phosphorylation value, respectively.
(§3) Of all of the steps in developing a drug, the hardest is finding promising compounds. (See, e.g., Malo et al., “Statistical practice in high-throughput screening data analysis,” Nature Biotechnology, 2006, 24, 167-75.) Kinase inhibitors often also have an anti-proliferative effect. […] The kinase inhibitory activity Compound 19 was tested using the kinase assay described in Example 3. […] These mutations in the tested kinases are thought to play an important role in transformation of some cancers.

FGFR1(h) = FGFR1(h) (Homo sapiens, UniProt P11362); assay: Kinase assay, FGFR1(h); format: biochemical; settings: 1 μM
Method: as §2, §3

RT112 = assay: Inhibition of proliferation (CellTiterblue, 72 hr), RT112; format: cell-based; settings: Homo sapiens, RT-112, 72 h
Method: as §1

Kato III = assay: Inhibition of proliferation (CellTiterblue, 72 hr), Kato III; format: cell-based; settings: Homo sapiens, KATO III, 72 h
Method: as §1

SNU16 = assay: Inhibition of proliferation (CellTiterblue, 72 hr), SNU16; format: cell-based; settings: Homo sapiens, SNU-16, 72 h
Method: as §1

Sequence of FGFR1(h) (P11362 22-822): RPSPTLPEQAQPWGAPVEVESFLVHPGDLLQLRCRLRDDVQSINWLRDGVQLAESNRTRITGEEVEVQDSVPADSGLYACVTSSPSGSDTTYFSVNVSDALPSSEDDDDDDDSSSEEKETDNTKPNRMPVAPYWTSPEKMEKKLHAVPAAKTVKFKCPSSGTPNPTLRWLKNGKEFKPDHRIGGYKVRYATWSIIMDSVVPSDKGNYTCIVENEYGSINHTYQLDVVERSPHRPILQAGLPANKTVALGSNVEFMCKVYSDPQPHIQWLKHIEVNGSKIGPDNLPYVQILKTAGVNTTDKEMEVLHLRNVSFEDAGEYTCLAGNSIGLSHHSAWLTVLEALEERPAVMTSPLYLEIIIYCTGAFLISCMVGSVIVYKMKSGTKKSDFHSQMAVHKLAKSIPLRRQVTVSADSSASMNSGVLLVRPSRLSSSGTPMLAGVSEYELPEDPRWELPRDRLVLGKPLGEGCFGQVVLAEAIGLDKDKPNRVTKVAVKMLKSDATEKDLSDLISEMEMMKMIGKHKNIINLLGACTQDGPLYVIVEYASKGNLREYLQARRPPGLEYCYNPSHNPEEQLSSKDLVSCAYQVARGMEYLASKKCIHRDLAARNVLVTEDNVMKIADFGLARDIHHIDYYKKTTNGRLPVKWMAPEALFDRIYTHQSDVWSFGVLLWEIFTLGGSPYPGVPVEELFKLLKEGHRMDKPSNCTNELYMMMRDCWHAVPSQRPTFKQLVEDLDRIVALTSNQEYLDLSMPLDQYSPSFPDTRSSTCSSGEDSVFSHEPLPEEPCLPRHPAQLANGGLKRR
Sequence of KDR(h) (P35968 20-1356): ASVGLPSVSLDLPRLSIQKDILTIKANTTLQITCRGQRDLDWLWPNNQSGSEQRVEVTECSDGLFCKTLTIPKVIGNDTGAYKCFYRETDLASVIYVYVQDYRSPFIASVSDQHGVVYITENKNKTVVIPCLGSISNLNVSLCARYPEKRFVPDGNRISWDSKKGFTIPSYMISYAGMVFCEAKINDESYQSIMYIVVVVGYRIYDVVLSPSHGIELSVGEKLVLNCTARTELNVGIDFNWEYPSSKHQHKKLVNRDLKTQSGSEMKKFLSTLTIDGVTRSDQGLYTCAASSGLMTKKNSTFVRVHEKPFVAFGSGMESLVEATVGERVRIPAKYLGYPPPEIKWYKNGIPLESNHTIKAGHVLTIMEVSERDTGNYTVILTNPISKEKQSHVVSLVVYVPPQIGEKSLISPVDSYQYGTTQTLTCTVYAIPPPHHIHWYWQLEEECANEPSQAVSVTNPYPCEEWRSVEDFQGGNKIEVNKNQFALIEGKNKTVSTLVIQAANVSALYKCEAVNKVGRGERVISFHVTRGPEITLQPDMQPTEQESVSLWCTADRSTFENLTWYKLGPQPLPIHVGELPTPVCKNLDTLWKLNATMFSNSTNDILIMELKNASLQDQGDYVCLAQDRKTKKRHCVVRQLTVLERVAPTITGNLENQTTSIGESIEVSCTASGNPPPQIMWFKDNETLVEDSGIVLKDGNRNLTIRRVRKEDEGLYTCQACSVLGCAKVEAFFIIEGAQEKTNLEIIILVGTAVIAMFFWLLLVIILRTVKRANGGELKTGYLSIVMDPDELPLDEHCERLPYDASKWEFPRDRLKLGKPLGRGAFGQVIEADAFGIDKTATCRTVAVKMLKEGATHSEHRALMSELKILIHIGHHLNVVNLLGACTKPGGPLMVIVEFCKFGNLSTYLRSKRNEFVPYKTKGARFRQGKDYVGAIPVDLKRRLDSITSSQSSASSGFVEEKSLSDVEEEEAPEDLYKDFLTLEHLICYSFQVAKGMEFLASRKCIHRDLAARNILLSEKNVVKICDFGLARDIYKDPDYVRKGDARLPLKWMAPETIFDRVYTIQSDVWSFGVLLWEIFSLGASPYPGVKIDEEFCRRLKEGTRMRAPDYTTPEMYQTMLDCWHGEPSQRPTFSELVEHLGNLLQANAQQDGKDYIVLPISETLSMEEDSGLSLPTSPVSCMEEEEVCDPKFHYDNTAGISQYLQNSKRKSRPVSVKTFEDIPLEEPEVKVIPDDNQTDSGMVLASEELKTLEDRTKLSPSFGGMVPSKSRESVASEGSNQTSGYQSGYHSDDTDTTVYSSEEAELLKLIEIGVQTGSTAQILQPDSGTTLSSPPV

Row | SMILES | inhibition at 1 µM (KDR(h)) | inhibition at 1 µM (FGFR1(h)) | GI50 (SNU16) | GI50 (KG1a) | GI50 (RT112) | GI50 (Kato III)
1 | COc1cc(N2CCN(C)CC2)ccc1Nc1ncnc(Oc2ccc3[nH]c(C)cc3c2F)c1C#N [Compound 1] | 96% | 99% | – | 49 nM | – | –
2 | Cc1cc2c(F)c(Oc3ncnc(Nc4ccc(N5CCN(C)CC5)c(F)c4)c3C#N)ccc2[nH]1 [Compound 2] | 96% | 100% | – | 62 nM | – | –
3 | Cc1cc2c(F)c(Oc3ncnc(N4CCN(C)CC4)c3C#N)ccc2[nH]1 [Compound 3] | 4% | 1% | – | – | – | –
4 | CCN1CCN(c2ccc(Nc3ncnc(Oc4ccc5[nH]c(C)cc5c4F)c3C(F)F)cc2)CC1 [Compound 5] | 9% | 26% | – | – | – | –
5 | Cc1cc2c(F)c(Oc3ncnc(Nc4ccc(C(=O)N5CCN(C)CC5)cc4)c3C#N)ccc2[nH]1 [Compound 6] | 95% | 85% | – | – | – | –
6 | Cc1cc2c(F)c(Oc3ncnc(Nc4ccc(N5CCN(C)CC5)c(C(F)(F)F)c4)c3C#N)ccc2[nH]1 [Compound 7] | 94% | 49% | – | – | – | –
7 | CCN1CCN(c2ccc(Nc3ncnc(Oc4ccc5[nH]c(C)cc5c4F)c3C#N)cc2F)CC1 [Compound 8] | 96% | 97% | – | 250 nM | – | –
8 | Cc1cc2c(F)c(Oc3ncnc(Nc4ccc(N5CCNCC5)c(F)c4)c3C#N)ccc2[nH]1 [Compound 9] | 96% | 100% | – | 314 nM | – | –
9 | Cc1cc2c(F)c(Oc3ncnc(Nc4ccc(CN5CCNCC5)cc4)c3C#N)ccc2[nH]1 [Compound 10] | 23% | 34% | – | – | – | –
10 | Cc1cc2c(F)c(Oc3ncnc(Nc4ccc(N5CCC(N(C)C)CC5)cc4)c3C#N)ccc2[nH]1 [Compound 11] | 96% | 100% | – | 25 nM | – | –
11 | Cc1cc2c(F)c(Oc3ncnc(Nc4ccc(-n5ccnc5)cc4)c3C#N)ccc2[nH]1 [Compound 12] | 67% | 56% | – | – | – | –
12 | Cc1cc2c(F)c(Oc3ncnc(Nc4ccc(-n5ccnc5C)cc4)c3C#N)ccc2[nH]1 [Compound 13] | 85% | 48% | – | – | – | –
13 | Cc1cc2c(F)c(Oc3ncnc(Nc4ccc(C)c(S(N)(=O)=O)c4)c3C#N)ccc2[nH]1 [Compound 15] | 96% | 94% | – | – | – | –
14 | Cc1cc2c(F)c(Oc3ncnc(Nc4ccc(N5C[C@@H](C)N[C@@H](C)C5)c(F)c4)c3C#N)ccc2[nH]1 [Compound 16] | 96% | 100% | – | 15 nM | – | –
15 | Cc1cc2c(F)c(Oc3ncnc(Nc4ccc(N5CCN(CC(F)(F)F)CC5)cc4)c3C#N)ccc2[nH]1 [Compound 18] | 92% | 76% | – | – | – | –
16 | Cc1cc2c(F)c(Oc3ncnc(Nc4ccc(N5CCN(CC(F)(F)F)CC5)cc4)c3C#N)cc(F)c2[nH]1 [Compound 20] | 42% | 70% | – | – | – | –
17 | Cc1cc2c(F)c(Oc3ncnc(Nc4cccc(N5CCOCC5)c4)c3C#N)ccc2[nH]1 [Compound 21] | 96% | 100% | – | – | – | –
18 | CCN1CCN(c2cccc(Nc3ncnc(Oc4ccc5[nH]c(C)cc5c4F)c3C#N)c2)CC1 [Compound 22] | 96% | 100% | – | 196 nM | – | –
19 | Cc1cc2c(F)c(Oc3ncnc(Nc4ccccc4)c3C#N)ccc2[nH]1 [Compound 23] | 96% | 98% | – | – | – | –
20 | Cc1cc2c(F)c(Oc3ncnc(Nc4ccc(N5CCCCC5)cc4)c3C#N)ccc2[nH]1 [Compound 24] | 95% | 86% | – | – | – | –
21 | CC(=O)Nc1ccc(Nc2ncnc(Oc3ccc4[nH]c(C)cc4c3F)c2C#N)cc1 [Compound 25, N-(4-((5-cyano-6-((4-fluoro-2-methyl-1H-indol-5-yl)oxy)pyrimidin-4-yl)amino)phenyl)acetamide] | 96% | 99% | – | 30 nM | – | –
22 | Cc1cc2c(F)c(Oc3ncnc(Nc4ccc(NS(C)(=O)=O)cc4)c3C#N)ccc2[nH]1 [Compound 26] | 96% | 97% | – | – | – | –
23 | Cc1cc2c(F)c(Oc3ncnc(Nc4ccc(N5CCNC(=O)C5)cc4)c3C#N)ccc2[nH]1 [Compound 27] | 97% | 99% | – | – | – | –
24 | Cc1cc2c(F)c(Oc3ncnc(Nc4ccc(N5CCCS5(=O)=O)cc4)c3C#N)ccc2[nH]1 [Compound 28] | 96% | 99% | – | 226 nM | – | –

Now from value to compound, other results behind:

Row | inhibition at 1 µM (KDR(h)) | inhibition at 1 µM (FGFR1(h)) | GI50 (SNU16) | SMILES | GI50 (KG1a) | GI50 (RT112) | GI50 (Kato III)
25 | 95% | 91% | – | CCOc1ccc(Nc2ncnc(Oc3ccc4[nH]c(C)cc4c3F)c2C#N)cc1 [Compound 29] | – | – | –
26 | 94% | 91% | – | Cc1cc2c(F)c(Oc3ncnc(Nc4ccc(C5CCNCC5)cc4)c3C#N)ccc2[nH]1 [Compound 30] | – | – | –
27 | 95% | 102% | 32 nM | Cc1cc2c(F)c(Oc3ncnc(Nc4ccc(N5CCN(CCO)CC5)cc4)c3C#N)cc(F)c2[nH]1 [Compound 31] | 0.35 nM | 171 nM | 205 nM
28 | 69% | 92% | – | CC(=O)N(C)c1ccc(Nc2ncnc(Oc3cc(F)c4[nH]c(C)cc4c3F)c2C#N)cc1 [Compound 32] | – | – | –
29 | 95% | 100% | – | Cc1cc2c(F)c(Oc3ncnc(Nc4ccc(NC(=O)C5CC5)cc4)c3C#N)cc(F)c2[nH]1 [Compound 35] | 78 nM | – | –
30 | 67% | 99% | – | Cc1cc2c(F)c(Oc3ncnc(Nc4ccc(C(N)=O)cc4)c3C#N)cc(F)c2[nH]1 [Compound 36] | 182 nM | – | –
31 | 70% | 99% | – | CNC(=O)c1ccc(Nc2ncnc(Oc3cc(F)c4[nH]c(C)cc4c3F)c2C#N)cc1 [Compound 37] | – | – | –
32 | 73% | 90% | – | Cc1cc2c(F)c(Oc3ncnc(Nc4ccc(C(=O)N(C)C)cc4)c3C#N)cc(F)c2[nH]1 [Compound 38] | – | – | –
33 | 36% | 91% | – | Cc1cc2c(F)c(Oc3ncnc(Nc4ccc(F)cc4)c3C#N)cc(F)c2[nH]1 [Compound 39] | – | – | –
34 | 20% | 78% | – | Cc1cc2c(F)c(Oc3ncnc(Nc4ccc(Cl)cc4)c3C#N)cc(F)c2[nH]1 [Compound 40] | – | – | –
35 | 96% | 101% | – | Cc1cc2c(F)c(Oc3ncnc(Nc4ccc(N5CCCC5=O)cc4)c3C#N)cc(F)c2[nH]1 [Compound 41] | 180 nM | – | –
36 | 96% | 101% | – | Cc1cc2c(F)c(Oc3ncnc(Nc4ccc5[nH]ccc5c4)c3C#N)cc(F)c2[nH]1 [Compound 42] | 35 nM | – | –
37 | 76% | 97% | – | Cc1cc2c(F)c(Oc3ncnc(Nc4ccccc4O)c3C#N)cc(F)c2[nH]1 [Compound 43] | – | – | –
38 | 14% | 41% | – | Cc1cc2c(F)c(Oc3ncnc(Nc4ccc([N+](=O)[O-])cc4)c3C#N)cc(F)c2[nH]1 [Compound 44] | – | – | –
39 | 91% | 101% | – | CCC(=O)Nc1cccc(Nc2ncnc(Oc3cc(F)c4[nH]c(C)cc4c3F)c2C#N)c1 [Compound 52] | 174 nM | – | –
40 | 17% | 89% | – | COC(=O)c1ccc(Nc2ncnc(Oc3cc(F)c4[nH]c(C)cc4c3F)c2C#N)cc1 [Compound 54] | – | – | –
41 | 6% | 55% | – | Cc1cc2c(F)c(Oc3ncnc(Nc4ccc(C#N)cc4)c3C#N)cc(F)c2[nH]1 [Compound 55] | – | – | –
42 | – | – | 6 nM | CCC(=O)Nc1ccc(Nc2ncnc(Oc3cc(F)c4[nH]c(C)cc4c3F)c2C#N)cc1 [Compound 57] | 15 nM | – | –
43 | – | – | 122 nM | Cc1cc2c(F)c(Oc3ncnc(Nc4ccc(NC(=O)CN5CCOCC5)cc4)c3C#N)cc(F)c2[nH]1 [Compound 58] | 101 nM | – | –
44 | – | – | 79 nM | Cc1cc2c(F)c(Oc3ncnc(Nc4ccc(NC(=O)CN5CCN(C)CC5)cc4)c3C#N)cc(F)c2[nH]1 [Compound 59] | 31 nM | – | –
45 | – | – | 92 nM | C/C=C/C(=O)Nc1ccc(Nc2ncnc(Oc3cc(F)c4[nH]c(C)cc4c3F)c2C#N)cc1 [Compound 60] | 101 nM | – | –
46 | – | – | 75 nM | Cc1cc2c(F)c(Oc3ncnc(Nc4ccc(N5C[C@@H](C)N[C@@H](C)C5)nc4)c3C#N)cc(F)c2[nH]1 [Compound 61] | 4 nM | – | –
